Test results from patent US20110022129A1, “NANOPARTICLES FOR PHOTODYNAMIC THERAPY” (priority 2007, published 2011).
≈ marks a conversion by molar mass, not a printed value.

Tests used:
[1] = test system: AB12, murine malignant pleural mesothelioma (MPM); test: External-beam (980 nm infrared) nanophosphor-mediated photodynamic therapy of AB12 flank tumors in mice; assay type: in vivo, mouse (BALB/cJ); conditions: for total number of surviving animals: sixty day observation, survivors/group size
Protocol: Six to twelve week old, female BALB/cJ (AB12 tumor host) mice, obtained pathogen-free from Taconic Farms, were used for all of the experiments. Animals were kept in conventional conditions in micro-isolator cages in a laminar flow unit under ambient light with full access to food and water during experiments.
AB12, murine malignant pleural mesothelioma (MPM) was utilized for tumor inoculation. Cells were maintained in complete DMEM/F12 culture media in a 37° C. humidified 5% CO2 incubator.
Seventy balb/C mice were inoculated with 5×10^5 AB12, malignant mesothelioma cells via subcutaneous flank injection. The subsequent tumors were measured using digital calipers three times per week until the tumors reached ˜200-300 mm^3 at which time the mice were given their first treatment. Mice were divided into […]. The groups were as follows: i. Control, ii. Infrared light-Nanophosphor-Photosensitizer (IR-NP-PS), iii. IR-NP, iv. IR-PS, v. IR alone, vi. NP alone, and vii. PS alone. Groups ii, iii, and vi were administered intra-tumoral injections with 100 μl of 25 mg/ml nanophosphor suspension in saline at 72 and 48 h prior to only the first treatment. Groups ii, iv, and vii were administered weekly intra-peritoneal (i.p.) injections of 10 mg/kg Photofrin™, twenty-four hours before first treatment of each week.
For this procedure mice were anesthetized with i.p. ketamine and xylazine, 80 mg/kg and 12 mg/kg, respectively. A maximum dose of 1.0 W of 980 nm light (BW Tek) at the treatment surface was measured using an IR thermopile detector (Coherent, Inc) for a total dose of 28.3 J/cm^2. Pulsed light delivery method of 1 second ON, 2 seconds OFF for 1.5 hours was utilized to minimize damage of healthy tissue due to heat from the infrared light by allowing the tissue to dissipate the heat between delivery cycles. […] Over the course of the entire treatment program tumors were measured three times weekly and mice were monitored for signs of morbidity for 60 days or until tumors reached endpoint of 500 mm^3.

[2] = physchem; conditions: aqueous with cosolvent or surfactant or cyclodextrin, kinetic from dmso stock
Excerpt: Nanoparticles were isolated as previously described, and the concentration of free β-carotene in the filtrate measured.

solubility [2] | Compound | total number of surviving animals [1] | tumor regression ([1]; over treatment program, in words)
– | Photofrin [PS alone] | 0/9 | –
– | Photofrin [IR-PS] | 0/10 | No animals
~0.05 mg/mL (≈ 93.1 µM) | CC1=C(/C=C/C(C)=C/C=C/C(C)=C/C=C/C=C(C)/C=C/C=C(C)/C=C/C2=C(C)CCCC2(C)C)C(C)(C)CCC1 [β-carotene] | – | –
